Source: PubChem BioAssay AID256 (DTP/NCI, 2004)
Values joined by “and” are separate entries in the source; they are usually repeats but may differ in a detail not shown here. Equal entries are not always repeated. Inconclusive results and toxic doses are left out. The calls were made as follows: active = survival T/C of 150% or more; inactive = T/C below 125% in these data.

Test system: CD2F1 mice, L1210 leukemia ip, survival T/C
Assay: NCI In Vivo Anticancer Drug Screen. Data for tumor model L1210 Leukemia (intraperitoneal) in CD2F1 (CDF1) mice
Settings: higher = longer survival
Summary of the method: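 Tumor-bearing mice (transplanted tumor) were split into treated and vehicle control groups, and the measured endpoint of each treated group was divided by that of its vehicle controls.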

[1] = endpoint: mean survival time, dose: 12.5 mg/kg/injection, schedule: Q01DX009 (ip), vehicle: saline with Tween-80
[2] = endpoint: mean survival time, dose: 25.0 mg/kg/injection, schedule: Q01DX009 (ip), vehicle: saline with Tween-80
[3] = endpoint: mean survival time, dose: 50.0 mg/kg/injection, schedule: Q01DX009 (ip), vehicle: saline with Tween-80
[4] = endpoint: mean survival time, dose: 100.0 mg/kg/injection, schedule: Q01DX001 (ip), vehicle: saline with Tween-80
[5] = endpoint: mean survival time, dose: 100.0 mg/kg/injection, schedule: Q01DX001 (ip), vehicle: saline
[6] = endpoint: mean survival time, dose: 200.0 mg/kg/injection, schedule: Q01DX001 (ip), vehicle: saline
[7] = endpoint: mean survival time, dose: 100.0 mg/kg/injection, schedule: Q01DX009 (ip), vehicle: saline with Tween-80
[8] = endpoint: mean survival time, dose: 50.0 mg/kg/injection, schedule: Q01DX009 (ip), vehicle: saline
[9] = endpoint: mean survival time, dose: 100.0 mg/kg/injection, schedule: Q01DX009 (ip), vehicle: saline
[10] = endpoint: mean survival time, dose: 100.0 mg/kg/injection, schedule: Q04DX003 (ip), vehicle: saline with Tween-80
[11] = endpoint: mean survival time, dose: 200.0 mg/kg/injection, schedule: Q04DX003 (ip), vehicle: saline with Tween-80
[12] = endpoint: mean survival time, dose: 400.0 mg/kg/injection, schedule: Q04DX003 (ip), vehicle: saline with Tween-80
[13] = endpoint: mean survival time, dose: 50.0 mg/kg/injection, schedule: Q01DX009 (ip), vehicle: Klucel (hydroxypropylcellulose) (HPC)
[14] = endpoint: mean survival time, dose: 100.0 mg/kg/injection, schedule: Q01DX009 (ip), vehicle: Klucel (hydroxypropylcellulose) (HPC)
[15] = endpoint: mean survival time, dose: 200.0 mg/kg/injection, schedule: Q01DX009 (ip), vehicle: Klucel (hydroxypropylcellulose) (HPC)
[16] = endpoint: mean survival time, dose: 200.0 mg/kg/injection, schedule: Q01DX009 (ip), vehicle: saline with Tween-80
[17] = endpoint: mean survival time, dose: 400.0 mg/kg/injection, schedule: Q01DX009 (ip), vehicle: saline with Tween-80

Measured: T/C

CC1OC2CC(O)C1(O)C1=C2C(O)=C(C(N)=O)C(=N)C1=O (centres undefined)
inactive: endpoint: median survival time, dose: 0.31 mg/kg/injection, schedule: Q01DX005 (ip), vehicle: saline 101 % of control | endpoint: median survival time, dose: 0.62 mg/kg/injection, schedule: Q01DX005 (ip), vehicle: saline 101 % of control | endpoint: median survival time, dose: 1.25 mg/kg/injection, schedule: Q01DX005 (ip), vehicle: saline 101 % of control | endpoint: median survival time, dose: 2.5 mg/kg/injection, schedule: Q01DX005 (ip), vehicle: saline 98 % of control | endpoint: median survival time, dose: 5.0 mg/kg/injection, schedule: Q01DX005 (ip), vehicle: saline 108 % of control

COc1cc(OC)c(NC(=O)Nc2cc(C)on2)cc1Cl
inactive: [1] 98 % of control | [2] 92 % of control | [3] 95 % of control

O=CC(NC(=O)OCc1ccccc1)C(O)C(O)C(O)CO (centres undefined)
inactive: endpoint: mean survival time, dose: 25.0 mg/kg/injection, schedule: Q01DX001 (ip), vehicle: saline with Tween-80 105 % of control | endpoint: mean survival time, dose: 50.0 mg/kg/injection, schedule: Q01DX001 (ip), vehicle: saline with Tween-80 102 % of control | [4] 102 % of control

O=C1CC(=O)N(C2OC(CO)C(O)C2O)C(=O)N1 (centres undefined)
inactive: endpoint: mean survival time, dose: 12.5 mg/kg/injection, schedule: Q01DX005 (ip), vehicle: water 94 % of control | endpoint: mean survival time, dose: 25.0 mg/kg/injection, schedule: Q01DX005 (ip), vehicle: water 100 % of control | endpoint: mean survival time, dose: 50.0 mg/kg/injection, schedule: Q01DX005 (ip), vehicle: water 106 % of control | endpoint: mean survival time, dose: 100.0 mg/kg/injection, schedule: Q01DX005 (ip), vehicle: water 106 % of control | endpoint: mean survival time, dose: 200.0 mg/kg/injection, schedule: Q01DX005 (ip), vehicle: water 105 % of control | endpoint: mean survival time, dose: 400.0 mg/kg/injection, schedule: Q01DX005 (ip), vehicle: water 100 % of control

CSCCC(C)(C)C
inactive: endpoint: mean survival time, dose: 75.0 mg/kg/injection, schedule: Q01DX001 (ip), vehicle: saline 103 % of control

CC(C)(O)C(Cl)S(=O)c1ccccc1 (centres undefined)
inactive: endpoint: mean survival time, dose: 37.5 mg/kg/injection, schedule: Q04DX003 (ip), vehicle: saline with Tween-80 100 % of control | endpoint: mean survival time, dose: 75.0 mg/kg/injection, schedule: Q04DX003 (ip), vehicle: saline with Tween-80 100 % of control | endpoint: mean survival time, dose: 85.0 mg/kg/injection, schedule: Q04DX002 (ip), vehicle: saline with Tween-80 88 % of control | endpoint: mean survival time, dose: 150.0 mg/kg/injection, schedule: Q04DX003 (ip), vehicle: saline with Tween-80 103 % of control | endpoint: mean survival time, dose: 190.0 mg/kg/injection, schedule: Q04DX002 (ip), vehicle: saline with Tween-80 90 % of control | endpoint: mean survival time, dose: 300.0 mg/kg/injection, schedule: Q04DX003 (ip), vehicle: saline with Tween-80 102 % of control

COc1ccccc1C(=O)C1N=C(c2ccccc2)OC1=O (centres undefined)
inactive: [5] 98 % of control | [6] 97 % of control | endpoint: mean survival time, dose: 400.0 mg/kg/injection, schedule: Q01DX001 (ip), vehicle: saline 97 % of control

CCCCCOC(CN)C(Cl)(Cl)Cl (centres undefined)
inactive: [1] 101 % of control | [2] 96 % of control | [3] 95 % of control | [7] 98 % of control

CC(C)(C)c1cc(CN2CCCC(O)C2)c(O)c(-c2ccccc2)c1 (centres undefined)
inactive: [8] 107 % of control | [9] 104 % of control

CCCCCCCCCCCCSC1=C(Cl)C(=O)C(OC)=C(OC)C1=O
inactive: endpoint: mean survival time, dose: 6.25 mg/kg/injection, schedule: Q01DX009 (ip), vehicle: saline with Tween-80 91 % of control | [1] 94 % of control | [2] 95 % of control | [3] 93 % of control

CC(C)C(C)OC(=O)Nc1cccc(O)c1 (centres undefined)
inactive: [10] 99 % of control | [11] 97 % of control | [12] 97 % of control

C=CCOc1c(C)cc(C)cc1C
inactive: [13] 113 % of control | [14] 94 % of control | [15] 102 % of control

CCCC1=CC(C)(C)CC(C)=C1 (tested in a mixture with another compound)
inactive: [3] 98 % of control | [7] 96 % of control | [10] 102 % of control | [16] 100 % of control | [11] 100 % of control

CCOC(=O)CC1(c2ccccc2)OC(=O)c2ccccc21 (centres undefined)
inactive: endpoint: mean survival time, dose: 100.0 mg/kg/injection, schedule: Q04DX002 (ip), vehicle: saline with Tween-80 102 % of control | endpoint: mean survival time, dose: 200.0 mg/kg/injection, schedule: Q04DX002 (ip), vehicle: saline with Tween-80 87 % of control | endpoint: mean survival time, dose: 400.0 mg/kg/injection, schedule: Q04DX002 (ip), vehicle: saline with Tween-80 87 % of control

CC1CCC(C(C)C)/C(=N/NC(=O)CC#N)C1 (centres undefined)
inactive: [5] 98 % of control | [6] 95 % of control

COc1ccc(/C=C(/c2ccccc2)[Si](C)(C)C)cc1
inactive: endpoint: mean survival time, dose: 100.0 mg/kg/injection, schedule: Q04DX003 (ip), vehicle: other 91 % of control | endpoint: mean survival time, dose: 200.0 mg/kg/injection, schedule: Q04DX003 (ip), vehicle: other 96 % of control | endpoint: mean survival time, dose: 400.0 mg/kg/injection, schedule: Q04DX003 (ip), vehicle: other 94 % of control

COC(=O)CCC(NC(=O)c1cccc(N(C)C=O)c1)C(=O)OC (centres undefined)
inactive: [4] 104 % of control | [10] 100 % of control | endpoint: mean survival time, dose: 200.0 mg/kg/injection, schedule: Q01DX001 (ip), vehicle: saline with Tween-80 115 % of control | [11] 100 % of control | endpoint: mean survival time, dose: 400.0 mg/kg/injection, schedule: Q01DX001 (ip), vehicle: saline with Tween-80 104 % of control | [12] 96 % of control

CCCCCN1C(=O)CCC1=O
inactive: [10] 112 % of control | [11] 109 % of control | [12] 104 % of control

O=C(O)C1C2C=CC(C2)C1C(=O)Nc1ccccc1 (centres undefined)
inactive: [7] 97 % of control | [16] 97 % of control | [17] 96 % of control

COC(=O)c1ccc(O)c(O)c1
inactive: [7] 102 % of control | [10] 99 % of control | [16] 101 % of control | [11] 102 % of control | [17] 90 % of control | [12] 91 % of control

O=C(OC1C=CC2CCC1C2)c1ccc([N+](=O)[O-])cc1 (centres undefined)
inactive: [3] 98 % of control | [7] 94 % of control | [10] 87 % of control | [16] 93 % of control | [11] 87 % of control

CCNc1nc(NC(C)C)nc(OC)n1
inactive: [3] 98 % of control | [7] 93 % of control | endpoint: mean survival time, dose: 100.0 mg/kg/injection, schedule: Q04DX003 (ip), vehicle: saline 101 % of control | [16] 96 % of control | endpoint: mean survival time, dose: 200.0 mg/kg/injection, schedule: Q04DX003 (ip), vehicle: saline 103 % of control

CCN(CC)CCOC(=O)Cc1cccc2c(=O)cc(-c3ccccc3)oc12
inactive: endpoint: mean survival time, dose: 12.5 mg/kg/injection, schedule: Q01DX009 (ip), vehicle: Klucel (hydroxypropylcellulose) (HPC) 95 % of control | endpoint: mean survival time, dose: 25.0 mg/kg/injection, schedule: Q01DX009 (ip), vehicle: Klucel (hydroxypropylcellulose) (HPC) 95 % of control | endpoint: mean survival time, dose: 25.0 mg/kg/injection, schedule: Q01DX009 (ip), vehicle: saline 95 % of control | [13] 92 % of control | [8] 111 % of control | [14] 89 % of control | [9] 96 % of control | [15] 87 % of control | endpoint: mean survival time, dose: 200.0 mg/kg/injection, schedule: Q01DX009 (ip), vehicle: saline 111 % of control | endpoint: mean survival time, dose: 400.0 mg/kg/injection, schedule: Q01DX009 (ip), vehicle: Klucel (hydroxypropylcellulose) (HPC) 93 % of control

O=C1c2ccccc2C(=O)N1CNc1ccc(Cl)cn1
inactive: [7] 86 % of control | [10] 97 % of control and 100 % of control | [11] 90 % of control and 98 % of control | [17] 86 % of control | [12] 91 % of control and 102 % of control
